Test results published in US20090253634A1, “Methods and Compositions for the Treatment of Gastrointestinal Disorders” (MICROBIA, INC., priority 2005, published 2009).
Bridge positions count the residues as written; N and C are the ends. Peptide text beside a SMILES is read from it.

Assays:
[1] = oral bioavailability in mice, radioimmunoassay (RIA) detection; set-up: species or system CD-1 mice; settings: female, CD-1, mouse, in vivo, 8 mg/kg intravenous, read-out: AUCi.v.,(0-4h) (converted)
Protocol: Oral bioavailability was also determined using a radioimmunoassay (RIA) detection method. Female CD-1 mice (Charles River, Wilmington, Mass.) weighing approximately 25g (7-8 weeks old) or female CD rats (Charles River, Wilmington, Mass.) weighing approximately 153 g were included in this study. Monoclonal antibody, 20C1 (Brandwein et al. 1985 Infect Immun. 47:242-246), which recognizes SEQ ID NO:7 and ^125I labeled-SEQ ID NO:7, a labeled tracer, were used in these experiments. The labeled tracer was purified by HPLC using a Waters C-18u Bondapak® column (25 cm) previously equilibrated with 10 mM ammonium acetate pH 5.8. […] Blood was drawn from all dosed animals by retro-orbital eye bleeding at specific intervals and test compound levels were analyzed by radioimmunoassay (RIA). […] Radioactivity was measured in a LS 6500 scintillation counter (Beckman-Coulter). The binding efficiency is defined as the percent radioactivity in the B0 sample compared to the input counts. The percent bound in each sample was calculated by the equation: […]
A standard curve was prepared by plotting % B/B0 as a function of the log SEQ ID NO:3 concentration. […] The area under the curve from T=0 to 4 hours (AUC0-4h) was calculated by the software for both p.o. and i.v. dosed animals. […] Oral Bioavailabilty (F) is calculated using the equation: […]

[2] = tested on: intestinal transit after abdominal surgery; assay: rat model of postoperative ileus; type: in vivo, CD rats; settings: oral 10 μg/kg, 20 minutes after charcoal meal
Protocol: Female CD rats were used to test the effect of SEQ ID NO:3 on delayed transit induced by abdominal surgery and manual manipulation of the small intestine. Groups of at least nine rats underwent abdominal surgery under isoflurane anesthesia. Surgery consisted of laparotomy and 5 minutes of gentle manual intestinal massage. Following recovery from anesthesia, rats were dosed orally with either 10 μg/kg SEQ ID NO:3 or vehicle (20 mM Tris) in a volume of 300 μl. 1 hour after dosing, intestinal transit rate was measured. Animals were again dosed with 300 μl of the test article followed immediately by 500 μl of a charcoal meal (10% charcoal, 10% gum arabic in water). To calculate the distance of the small intestine traveled by the charcoal front, after 20 minutes, the total length of the intestine as well as the distance traveled from the stomach to the charcoal front were measured for each animal. Animals dosed with 10 μg/kg SEQ ID NO:3 experienced an increase in transit following abdominal surgery compared to animals dosed with vehicle alone (FIG. 16). Charcoal transit in SEQ ID NO:3 dosed animals was measured at 37.3+3.0% (mean±SEM) of the small intestine compared with vehicle at 24.7+1.4% (mean±SEM) of the small intestine.

[3] = tested on: ligated loop in the small intestine; assay: ligated intestinal loop model in wild-type and GC-C KO mice; type: in vivo; settings: 5 μg injected into loop, 90 minutes
Protocol: The length of each loop was also recorded.

Structure (SMILES): C[C@@H]1NC(=O)[C@@H]2CCCN2C(=O)[C@H](CC(N)=O)NC(=O)[C@@H]2CSSC[C@H](N)C(=O)N[C@H]3CSSC[C@H](NC1=O)C(=O)N[C@@H]([C@@H](C)O)C(=O)NCC(=O)N[C@H](C(=O)N[C@@H](Cc1ccc(O)cc1)C(=O)O)CSSC[C@H](NC(=O)[C@H](Cc1ccc(O)cc1)NC(=O)[C@H](CCC(=O)O)NC3=O)C(=O)N2 [SEQ ID NO:3] (H-CCEYCCNPACTGCY-OH; disulfide 1-6, 2-10, 5-13; N-terminus and C-terminus assumed)
- AUC [1]: 27700 ng·h/mL
- Charcoal transit, of the small intestine (mean±SEM) [2]: 37.3 ± 3.0%
- cGMP activity in ligated loop fluid [3]: no effect
- secretion in ligated loop (weight to length ratio) [3]: no effect
